Data taken from patent US11193932B2, “4,4-disubstituted cyclohexyl bridged heptamethine cyanine dyes and uses thereof” (VisEn Medical, Inc., priority 2013, dated 2021).

Key:
[1] = Absorbance of the dyes (absorption maximum, extinction coefficient); type: physicochemical
[2] = Fluorescence emission maximum of the dyes; type: physicochemical

Work on `CCOC(=O)C1(C(=O)NCCS(=O)(=O)O)CC(/C=C/C2=[N+](CCCS(=O)(=O)[O-])c3ccc(S(=O)(=O)O)cc3C2(C)C)=CC(=C/C=C2/N(CCCS(=O)(=O)O)c3ccc(S(=O)(=O)O)cc3C2(C)C)/C1` (stereo not drawn) [Compound 1c] yielded an Abs. max ([1]; in water) of 749 nm.
With `CC1(C)C(/C=C/C2=CC(=C/C=C3/N(CCCS(=O)(=O)O)c4ccc(S(=O)(=O)O)cc4C3(C)C)/CC(C(=O)NCCCCCC(=O)O)(C(=O)NCCS(=O)(=O)O)C2)=[N+](CCCS(=O)(=O)[O-])c2ccc(S(=O)(=O)O)cc21` (stereo not drawn) [Compound 1f] the Abs. max ([1]; in water/1× PBS) was 751 nm and the “Em. Max” value ([2]; in water/1× PBS) was 771 nm.
In the case of `CC1(C)C(/C=C/C2=CC(=C/C=C3/N(CCCS(=O)(=O)O)c4ccc(S(=O)(=O)O)cc4C3(C)C)/CC(C(=O)O)(C(=O)NCCS(=O)(=O)O)C2)=[N+](CCCS(=O)(=O)[O-])c2ccc(S(=O)(=O)O)cc21` (stereo not drawn) [Compound 1d], the Abs. max ([1]; in water/1× PBS) is reported as 751 nm and the “Em. Max” value ([2]; in water/1× PBS) is reported as 771 nm.
In the case of `CCOC(=O)C1(C(=O)O)CC(/C=C/C2=[N+](CCCS(=O)(=O)[O-])c3ccc(S(=O)(=O)O)cc3C2(C)C)=CC(=C/C=C2/N(CCCS(=O)(=O)O)c3ccc(S(=O)(=O)O)cc3C2(C)C)/C1` (stereo not drawn) [Compound 1b], the “% absorption of the dye at 278 nm with respect to its abs. at λmax, 750 nm” value [1] is reported as 4%, the Abs ([1]; 1x PBS) is reported as 749 nm and the “ε (extinction coefficient of the dye)” value ([1]; 1x PBS, in M-1 cm-1 (unit assumed)) is reported as 240,000. It also gave an Em ([2]; 1x PBS) of 771 nm.
For `CCN1/C(=C/C=C2C=C(/C=C/C3=[N+](CC)c4ccc5c(S(=O)(=O)[O-])cc(S(=O)(=O)O)cc5c4C3(C)C)CC(C(=O)NCCCCCC(=O)O)(C(=O)NCCS(=O)(=O)O)C/2)C(C)(C)c2c1ccc1c(S(=O)(=O)O)cc(S(=O)(=O)O)cc21` (stereo not drawn) [Compound 4m], the Abs. max ([1]; MeOH) was 780 nm, the Abs. max ([1]; in water) was 775 nm and the “Em. Max” value ([2]; water) was 795 nm.
